≈ marks a conversion by molar mass, not a printed value.
Legend:
[1] = system: Acinetobacter calcoaceticus ATCC 13006; test: In vitro antibacterial activity (MIC), Japan Society of Chemotherapy Standard; assay type: cell-based; conditions: ATCC13006, inoculated cells 10⁶ cells/ml
Experimental: (§1) The in vitro antibacterial activity (minimum inhibitory concentration, MIC, µg/ml) of the test compounds was determined according to Japan Society of Chemotherapy Standard [Chemotherapy, vol. 29, pp 76-79 (1981)].
(§2) Inoculated cells were 10⁶ cells/ml and the strain with * was incubated in a medium supplemented with 10% horse blood. The mark "1)" means quinolone resistant MRSA and "2)" means quinolone resistant bacteria.

[2] = system: Citrobacter freundii IFO 12681; test: as above; assay type: cell-based; conditions: IFO12681, inoculated cells 10⁶ cells/ml
Experimental: as §1, §2

[3] = system: Corynebacterium diphtheriae Tronto; test: as above; assay type: cell-based; conditions: inoculated cells 10⁶ cells/ml, medium supplemented with 10% horse blood
Experimental: as §1, §2

E. avium EAY-30 = test: as above; assay type: cell-based; conditions: Enterococcus avium, EAY30, inoculated cells 10⁶ cells/ml
Experimental: as §1, §2

E. faecalis EFY-204 = test: as above; assay type: cell-based; conditions: Enterococcus faecalis, EFY204; quinolone resistant bacteria; inoculated cells 10⁶ cells/ml
Experimental: as §1, §2

E. faecium EFMY-207 = test: as above; assay type: cell-based; conditions: Enterococcus faecium, EFMY207; quinolone resistant bacteria; inoculated cells 10⁶ cells/ml
Experimental: as §1, §2

E. faecium EFMY-28 = test: as above; assay type: cell-based; conditions: Enterococcus faecium, EFMY28; inoculated cells 10⁶ cells/ml
Experimental: as §1, §2

[4] = system: Enterobacter cloacae IFO 12937; test: as above; assay type: cell-based; conditions: IFO12937, inoculated cells 10⁶ cells/ml
Experimental: as §1, §2

[5] = system: Enterococcus faecalis LS-101; test: as above; assay type: cell-based; conditions: LS101, inoculated cells 10⁶ cells/ml
Experimental: as §1, §2

[6] = system: Escherichia coli NIHJ JC-2; test: as above; assay type: cell-based; conditions: NIHJJC2, inoculated cells 10⁶ cells/ml
Experimental: as §1, §2

Klebsiella pneumoniae DT = test: as above; assay type: cell-based; conditions: inoculated cells 10⁶ cells/ml
Experimental: as §1, §2

P. mirabilis IFO 3849 = test: as above; assay type: cell-based; conditions: Proteus mirabilis, IFO3849; inoculated cells 10⁶ cells/ml
Experimental: as §1, §2

[7] = system: Proteus vulgaris IFO 3988; test: as above; assay type: cell-based; conditions: IFO3988, inoculated cells 10⁶ cells/ml
Experimental: as §1, §2

[8] = system: Pseudomonas aeruginosa IFO 12582; test: as above; assay type: cell-based; conditions: IFO12582, inoculated cells 10⁶ cells/ml
Experimental: as §1, §2

S. aureus No.88 = test: as above; assay type: cell-based; conditions: Staphylococcus aureus; quinolone resistant MRSA; inoculated cells 10⁶ cells/ml
Experimental: as §1, §2

[9] = system: S. epidermidis ATCC 12228; test: as above; assay type: cell-based; conditions: Staphylococcus epidermidis, ATCC12228; inoculated cells 10⁶ cells/ml
Experimental: as §1, §2

S. epidermidis SEY-223 = test: as above; assay type: cell-based; conditions: Staphylococcus epidermidis, SEY223; quinolone resistant bacteria; inoculated cells 10⁶ cells/ml
Experimental: as §1, §2

S. pneumoniae Type-III = test: as above; assay type: cell-based; conditions: Streptococcus pneumoniae; inoculated cells 10⁶ cells/ml; medium supplemented with 10% horse blood
Experimental: as §1, §2

S. viridans America = test: as above; assay type: cell-based; conditions: Streptococcus viridans; inoculated cells 10⁶ cells/ml; medium supplemented with 10% horse blood
Experimental: as §1, §2

[10] = system: Serratia marcescens IFO 12648; test: as above; assay type: cell-based; conditions: IFO12648, inoculated cells 10⁶ cells/ml
Experimental: as §1, §2

Shigella flexneri EW-10 = test: as above; assay type: cell-based; conditions: EW10, inoculated cells 10⁶ cells/ml
Experimental: as §1, §2

[11] = system: Staphylococcus aureus FDA 209P; test: as above; assay type: cell-based; conditions: FDA209P, inoculated cells 10⁶ cells/ml
Experimental: as §1, §2

[12] = system: Streptococcus pyogenes C-203; test: as above; assay type: cell-based; conditions: C203, inoculated cells 10⁶ cells/ml, medium supplemented with 10% horse blood
Experimental: as §1, §2

B. fragilis BFY-18 = test: Antibacterial effect against specific bacteria (MIC); assay type: cell-based; conditions: Bacteroides fragilis, BFY18; same manner as Experimental Example 1
Experimental: as §1
(§3) In the same manner as in Experimental Example 1, the antibacterial effect against specific bacteria such as Chlamydia, Mycoplasma and acid-fast bacteria and anaerobic bacteria was determined.

[13] = system: Chlamydia trachomatis D/UW-3Cx; test: as above; assay type: cell-based; conditions: same manner as Experimental Example 1
Experimental: as §1, §3

[14] = system: Mycobacterium smegmatis IFO 3153; test: as above; assay type: cell-based; conditions: Mycolicibacterium smegmatis, IFO3153; same manner as Experimental Example 1
Experimental: as §1, §3

[15] = system: Mycoplasma pneumoniae ATCC 29343; test: as above; assay type: cell-based; conditions: ATCC29343, same manner as Experimental Example 1
Experimental: as §1, §3

[16] = system: Ureaplasma urealyticum ATCC 27618; test: as above; assay type: cell-based; conditions: ATCC27618, same manner as Experimental Example 1
Experimental: as §1, §3

E. coli KC-14 [17] = test: MIC of the infectious bacteria used for experimental infection; assay type: cell-based; conditions: Escherichia coli, KC14; infectious strain of the mouse protection test
Experimental: as §1
(§4) Experimental infection was caused by intraperitoneal inoculation of respective bacteria to male mice. One hour after the inoculation, a test compound was orally administered to the mice. The therapeutic effect of each test compound was evaluated by reference to the 50% effective dose (ED₅₀) which was based on the survival ratio at 7 days after the administration according to the probit method [Proc. Soc. Exp. Med., Vol. 57, p 261-264 (1944)]. The minimum inhibitory concentration (MIC) of the infectious bacteria used was also determined. […]

S. aureus MRSA Y-238 [18] = test: as above; assay type: cell-based; conditions: Staphylococcus aureus, infectious strain of the mouse protection test
Experimental: as §1, §4

S. aureus Smith [19] = test: as above; assay type: cell-based; conditions: Staphylococcus aureus; infectious strain of the mouse protection test
Experimental: as §1, §4

E. coli KC-14 [20] = test: Protection of mice from experimental infection; assay type: in vivo; conditions: Table 3-2: male mice; intraperitoneal inoculation (744×LD₅₀); oral administration one hour after inoculation; survival ratio at 7 days
Experimental: as §4

S. aureus MRSA Y-238 [21] = test: Protection of mice from experimental infection; assay type: in vivo; conditions: Table 3-2: male mice; intraperitoneal inoculation 7.5×10⁵ cells/mouse (185×LD₅₀); oral administration one hour after inoculation; survival ratio at 7 days
Experimental: as §4

S. aureus Smith [22] = test: Protection of mice from experimental infection; assay type: in vivo; conditions: male mice; intraperitoneal inoculation 2.8×10⁶ cells/mouse (123×LD₅₀); oral administration one hour after inoculation; survival ratio at 7 days, probit method
Experimental: as §4

`COc1c(N2CC[C@@](CN)(CF)C2)c(F)cc2c(=O)c(C(=O)O)cn(C3CC3)c12` [Example 17, (S)-7-(3-aminomethyl-3-fluoromethylpyrrolidin-1-yl)-1-cyclopropyl-6-fluoro-1,4-dihydro-8-methoxy-4-oxo-3-quinolinecarboxylic acid] showed an MIC [1] of 0.1 µg/mL (≈ 0.245 µM), an MIC [2] of 0.2 µg/mL (≈ 0.491 µM) and an MIC [3] of 0.025 µg/mL (≈ 0.0614 µM). The MIC (E. avium EAY-30) was 0.2 µg/mL (≈ 0.491 µM), the MIC (E. faecalis EFY-204) was 1.56 µg/mL (≈ 3.83 µM) and the MIC (E. faecium EFMY-207) was 3.13 µg/mL (≈ 7.68 µM). For the same compound, the MIC (E. faecium EFMY-28) was 0.39 µg/mL (≈ 0.957 µM), the MIC [4] was 0.39 µg/mL (≈ 0.957 µM) and the MIC [5] was 0.025 µg/mL (≈ 0.0614 µM). It also gave an MIC [6] of 0.1 µg/mL (≈ 0.245 µM), an MIC (Klebsiella pneumoniae DT) of 0.05 µg/mL (≈ 0.123 µM) and an MIC (P. mirabilis IFO 3849) of 0.78 µg/mL (≈ 1.91 µM). For the same compound, the MIC [7] was 0.78 µg/mL (≈ 1.91 µM), the MIC [8] was 1.56 µg/mL (≈ 3.83 µM) and the MIC (S. aureus No.88) was 0.78 µg/mL (≈ 1.91 µM). For the same compound, the MIC [9] was 0.025 µg/mL (≈ 0.0614 µM), the MIC (S. epidermidis SEY-223) was 0.78 µg/mL (≈ 1.91 µM) and the MIC (S. pneumoniae Type-III) was 0.05 µg/mL (≈ 0.123 µM). It also gave an MIC (S. viridans America) of 0.1 µg/mL (≈ 0.245 µM), an MIC [10] of 0.39 µg/mL (≈ 0.957 µM) and an MIC (Shigella flexneri EW-10) of 0.025 µg/mL (≈ 0.0614 µM). For the same compound, the MIC [11] was 0.012 µg/mL (≈ 0.0295 µM), the MIC [12] was 0.1 µg/mL (≈ 0.245 µM) and the MIC (B. fragilis BFY-18) was 0.2 µg/mL (≈ 0.491 µM). The MIC [13] was 0.025 µg/mL (≈ 0.0614 µM), the MIC [14] was 0.1 µg/mL (≈ 0.245 µM) and the MIC [15] was 0.1 µg/mL (≈ 0.245 µM). It also gave an MIC [16] of 0.39 µg/mL (≈ 0.957 µM), an MIC (E. coli KC-14 [17]) of 0.025 µg/mL and an MIC (S. aureus MRSA Y-238 [18]) of 0.39 µg/mL. The MIC (S. aureus Smith [19]) was ≤ 0.006 µg/mL, the “ED₅₀ (mg/mouse) (95% confidence limit)” value (E. coli KC-14 [20]) was 0.011(0.008-0.015) mg/mouse and the “ED₅₀ (mg/mouse) (95% confidence limit)” value (S. aureus MRSA Y-238 [21]) was 1.540(1.103-2.151) mg/mouse. For the same compound, the “ED₅₀ (mg/mouse) (95% confidence limit)” value (S. aureus Smith [22]) was 0.031(0.021-0.044) mg/mouse.
